Assay results reported in patent US20220380319A1 (Bial - R&D Investments, S.A., priority 2019, published 2022).
In brackets after ≈: the same amount, converted by molar mass.

How the values were obtained:
[1] = Compound solubility in water
acid ceramidase = target: T1, acid ceramidase (Homo sapiens, UniProt Q13510); assay: Acid ceramidase inhibition, biochemical fluorescent assay with cell lysates overexpressing acid ceramidase, substrate Rbm14-12; conditions: substrate Rbm14-12 6.3 μM
T1 construct: Cell lysates overexpressing acid ceramidase were used as the enzyme source; expressed in transfected cells
T1 sequence (Q13510 22-395): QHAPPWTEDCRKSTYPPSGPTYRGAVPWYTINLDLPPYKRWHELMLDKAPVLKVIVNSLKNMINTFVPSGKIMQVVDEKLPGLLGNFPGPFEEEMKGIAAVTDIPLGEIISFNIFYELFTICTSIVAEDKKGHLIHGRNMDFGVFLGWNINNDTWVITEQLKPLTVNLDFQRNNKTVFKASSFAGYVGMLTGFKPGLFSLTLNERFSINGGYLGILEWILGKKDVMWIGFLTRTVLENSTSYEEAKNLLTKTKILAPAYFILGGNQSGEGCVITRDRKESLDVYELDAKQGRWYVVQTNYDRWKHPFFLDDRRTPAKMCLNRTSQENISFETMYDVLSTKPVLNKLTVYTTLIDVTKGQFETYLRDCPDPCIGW
Summary of the method: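 Lysate of cells overexpressing acid ceramidase (10 μg protein) preincubated with compound dose series 1 hr at RT in 25 mM NaAC, 100 mM NaCl, pH 4.5, then reacted 1 hr with 6.3 μM Rbm14-12. Stopped with NaIO4/glycine buffer pH 10.6, fluorescence ex360/em446; IC50 by four-parameter fit.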

[2] = pH 4.5, 1 hr preincubation at RT

solubility [1] [µg/mL] | IC50 (acid ceramidase; [2]) [nM] | IC50 (acid ceramidase; pH 4.5) [nM] | SMILES
33 (≈ 96.6 µM) | 200 to 1000 |  | CC(C)CCNC(=O)n1cnc2c(N3CC4CC3CN4C)cccc21 (stereo not shown) [Example 159, N-iso-Pentyl-4-(5-methyl-2,5-diazabicyclo[2.2.1]heptan-2-yl)-1H-benzo[d]imidazole-1-carboxamide]
31.2 (≈ 89 µM) | < 200 |  | O=C(NCCc1ccccc1)n1cnc2ccc(N3CCOCC3)cc21 [Example 14b, 6-Morpholino-N-phenethyl-1H-benzo[d]imidazole-1-carboxamide]
22 (≈ 62.6 µM) | < 200 |  | COc1nc2cc(-c3cncnc3)ccc2n1C(=O)NC1CCCCC1 [Example 111b, N-cyclohexyl-2-methoxy-5-(pyrimidin-5-yl)-1H-benzo[d]imidazole-1-carboxamide]
5.3 (≈ 19.9 µM) | < 200 |  | O=C(NCCc1ccccc1)n1cnc2cnccc21 [Example 20, N-Phenethyl-1H-imidazo[4,5-c]pyridine-1-carboxamide]
36 (≈ 93.6 µM) |  | 200 to 1000 | CC(C)CCNC(=O)n1cnc2c(N3CCN(C4CN(C)C4)CC3)cccc21 [Example 204, N-iso-Pentyl-4-(4-(1-methylazetidin-3-yl)-piperazin-1-yl)-1H-benzo[d]imidazole-1-carboxamide]
38 (≈ 96.6 µM) |  | < 200 | CN(C)CC1CN(c2cccc3c2ncn3C(=O)NCCOc2ccccc2)C1 [Example 330, 4-(3-((Dimethylamino)methyl)azetidin-1-yl)-N-(2-phenoxyethyl)-1H-benzo[d]imidazole-1-carboxamide]
29 (≈ 72.1 µM) |  | 200 to 1000 | COc1nc2cc(N3CCOCC3)ccc2n1C(=O)NCCCOC(F)(F)F [Example 233b, 2-methoxy-5-morpholino-N-(3-(trifluoromethoxy)propyl)-1H-benzo[d]imidazole-1-carboxamide]
12.6 (≈ 44.2 µM) | < 200 |  | CCCCNC(=O)n1cnc2ccc(C(F)(F)F)cc21 [Example 49b, N-butyl-6-(trifluoromethyl)-1H-benzo[d]imidazole-1-carboxamide]
5 (≈ 14.6 µM) |  | 200 to 1000 | CC(C)CCNC(=O)n1cnc2c(N3CC4CCC(C3)O4)cccc21 [Example 221, 4-(8-Oxa-3-azabicyclo[3.2.1]octan-3-yl)-N-isopentyl-1H-benzo[d]imidazole-1-carboxamide]
27.6 (≈ 78.3 µM) | < 200 |  | CN(C)CCOc1nc2ccccc2n1C(=O)NCCc1ccccc1 [Example 89, 2-(2-(Dimethylamino)ethoxy)-N-phenethyl-1H-benzo[d]imidazole-1-carboxamide]
33 (≈ 85.8 µM) |  | 200 to 1000 | COc1nc2cc(N3CCOCC3)ccc2n1C(=O)NCCCc1ccco1 [Example 228b, N-(3-(furan-2-yl)propyl)-2-methoxy-5-morpholino-1H-benzo[d]imidazole-1-carboxamide]
23 (≈ 64.9 µM) |  | < 200 | CC(C)CCNC(=O)n1cnc2c(N3CCN(C)CC3)cc(C#N)cc21 [Example 180, 6-Cyano-N-iso-pentyl-4-(4-methylpiperazin-1-yl)-1H-benzo[d]imidazole-1-carboxamide]
27 (≈ 66.6 µM) |  | < 200 | O=C(NCCOc1ccccc1)n1cnc2c(N3CCN4CCCC4C3)cccc21 (stereo not shown) [Example 316, 4-(Hexahydropyrrolo[1,2-a]pyrazin-2(1H)-yl)-N-(2-phenoxyethyl)-1H-benzo[d]imidazole-1-carboxamide]
8 (≈ 30.2 µM) | < 200 |  | O=C(NCCc1ccccc1)n1cnc2ccccc21 [Example 1, N-Phenethyl-1H-benzo[d]imidazole-1-carboxamide]
3.9 (≈ 10.5 µM) | < 200 |  | COc1nc2ccc(-c3cccnc3)cc2n1C(=O)NCCc1ccccc1 [Example 30b, 2-methoxy-N-phenethyl-6-(pyridin-3-yl)-1H-benzo[d]imidazole-1-carboxamide]
24.5 (≈ 75.3 µM) | 200 to 1000 |  | CCCCNC(=O)n1c(OC)nc2cc(-c3cncnc3)ccc21 [Example 82b, N-Butyl-2-methoxy-5-(pyrimidin-5-yl)-1H-benzo[d]imidazole-1-carboxamide]
12 (≈ 31.2 µM) |  | < 200 | COc1nc2c(N3CCN(C)CC3)cc(C#N)cc2n1C(=O)NCCC(C)C [Example 210, 6-Cyano-N-iso-pentyl-2-methoxy-4-(4-methylpiperazin-1-yl)-1H-benzo[d]imidazole-1-carboxamide]
23 (≈ 52.8 µM) |  | < 200 | COc1nc2ccc(N3CCN(C(C)=O)CC3)cc2n1C(=O)NCCCc1ccccc1 [Example 236b, 6-(4-acetylpiperazin-1-yl)-2-methoxy-N-(3-phenylpropyl)-1H-benzo[d]imidazole-1-carboxamide]
6.8 (≈ 24.3 µM) | < 200 |  | Cc1ccc(CCNC(=O)n2cnc3ccccc32)cc1 [Example 108, N-(4-Methylphenethyl)-1H-benzo[d]imidazole-1-carboxamide]
1 (≈ 2.45 µM) | < 200 |  | COc1nc2ccc(N3CCOCC3)cc2n1C(=O)NCCCCc1ccccc1 [Example 133a, 2-Methoxy-6-morpholino-N-(4-phenylbutyl)-1H-benzo[d]imidazole-1-carboxamide]
26 (≈ 62.1 µM) |  | < 200 | CN1CCN(c2cccc3c2ncn3C(=O)NCCOc2ccccc2)CC1CC#N (stereo not shown) [Example 317, 4-(3-(Cyanomethyl)-4-methylpiperazin-1-yl)-N-(2-phenoxyethyl)-1H-benzo[d]imidazole-1-carboxamide]
29 (≈ 85.4 µM) |  | < 200 | CNC1CCN(c2cccc3c2ncn3C(=O)NCC#CC(C)C)C1 (stereo not shown) [Example 300, 4-(3-(Methylamino)pyrrolidin-1-yl)-N-(4-methylpent-2-ynyl)-1H-benzo[d]imidazole-1-carboxamide]
28 (≈ 64.7 µM) |  | < 200 | CN1CCN(C2CN(c3cccc4c3ncn4C(=O)NCCCc3ccccc3)C2)CC1 [Example 276, 4-(3-(4-Methylpiperazin-1-yl)azetidin-1-yl)-N-(3-phenylpropyl)-1H-benzo[d]imidazole-1-carboxamide]
2 (≈ 7.11 µM) | < 200 |  | O=C(NCCOc1ccccc1)n1cnc2ccccc21 [Example 18, N-(2-Phenoxyethyl)-1H-benzo[d]imidazole-1-carboxamide]
2 (≈ 6.36 µM) | 200 to 1000 |  | CC(C)CCNC(=O)n1cnc2c(N3CCCCC3)cccc21 [Example 151, N-iso-Pentyl-4-(piperidin-1-yl)-1H-benzo[d]imidazole-1-carboxamide]
27 (≈ 66.1 µM) | < 200 |  | CN1CCN(C2CN(c3cccc4c3ncn4C(=O)NCC#CC(C)(C)C)C2)CC1 [Example 360, N-(4,4-Dimethylpent-2-yn-1-yl)-4-(3-(4-methylpiperazin-1-yl)azetidin-1-yl)-1H benzo[d]imidazole-1-carboxamide]
26.4 (≈ 89.1 µM) | < 200 |  | Cn1c(=O)n(C(=O)NCCc2ccccc2)c2ncccc21 [Example 88, 1-Methyl-2-oxo-N-phenethyl-1,2-dihydro-3H-imidazo[4,5-b]pyridine-3-carboxamide]
15 (≈ 45.7 µM) | < 200 |  | O=C(NCCCC1CC1)n1cnc2c(N3CCOCC3)cccc21 [Example 141, N-(3-Cyclopropylpropyl)-4-morpholino-1H-benzo[d]imidazole-1-carboxamide]
2.6 (≈ 7.46 µM) | < 200 |  | O=C(NCCc1ccccc1)n1cnc2cc(N3CCCCC3)ccc21 [Example 13a, N-Phenethyl-5-(piperidin-1-yl)-1H-benzo[d]imidazole-1-carboxamide]
